Assay results published in PMC11429909, “Protein Structure Inspired Discovery of a Novel Inducer of Anoikis in Human Melanoma” (Cancers, 2024).

Columns and labels:
[1] = system: NCI-60 cell lines; assay: NCI-60 cell line screen; format: cell-based, human; settings: 48 h at 10 µM
Experimental: The above findings support the importance of Dxr2 and FolC2 sites, and of Dxr2-017 and FolC2-001 compounds, respectively. The NCI-60 cell line screen evaluates compound growth inhibition and cell toxicity in a highly standardized manner across 60 different cell lines. Dxr2-017 and FolC2-001 were evaluated in this assay (Figure S6). NCI-60 screens evaluate cells treated for 48 h at 10 µM with a given compound. […] Of high interest, in the NCI-60 screen, Dxr2-017 had relatively high activity against melanoma cell lines, inducing cell death in five cell lines ranging from 25% to 65%, and inhibiting growth in four cell lines ranging from 76% to 96%. Its impact on cell death represented the most striking relative difference in response across cell lines.

[2] = system: M14 cells; assay: Adherent versus floating cell quantification from images, M14; format: cell-based, human; settings: 10 µM, 3-day treatment, mean ± SEM (N = 4), controls 16.3 ± 2.8%
Experimental: After treatment of M14 and SK-MEL-5 cells with different concentrations of Dxr2-017 or vehicle for 3 or 8 days, as denoted, cell images were captured at 20X in a transmitted light channel using the EVOS™ M5000 Imaging System (Invitrogen (Waltham, MA, USA)). Western blots were performed as previously described by us. Briefly, cells were collected and lysed using RIPA lysis buffer (25 mM Tris-HCl pH 7.6, 150 mM NaCl, 1% NP-40, 1% sodium deoxycholate, and 0.1% SDS; Thermo Scientific^TM (Waltham, MA, USA), #89900), supplemented with protease and phosphatase inhibitor cocktail (Thermo Scientific^TM, #78442) and 1 mM of PMSF. […]
Figure 8 Dxr2-017 inhibits melanoma cell growth through induction of anoikis. […] Data are expressed as the percent of untreated control and are the mean ± SEM of three separate experiments. […] M14 and SK-MEL-5 cells were treated for eight days with 20 nM and 50 nM of Dxr2-017, respectively, and the phase of the cell cycle was determined by flow cytometry. […] (D) Adherent and floating cells were quantified from captured images. Data are the mean ± SEM (N = 4), expressed as a percentage to total cells. * Denotes p-value ≤ 0.05 compared to respective floating or attached cells. […]
We then assessed whether Dxr2-017 induced apoptosis. […]

SMILES: c1ccc2sc(-c3ccc(CNc4ccc5nnnn5n4)o3)nc2c1 [Dxr2-017]
- activity in the NCI-60 screen (in words) [1]: activity against HT29, MDA-MB-231, and H226
- floating cell population, percentage to total cells [2]: 79.9 ± 7.4%
